Values of other authors as cited in patent publication US10463641B2, “Method for using small molecule compounds to induce human tumor cells to be directly reprogrammed into non-oncogenic cells” (Transcend Cytotherapy Co., Ltd, priority 2015, dated 2019).

What was measured:
ALK2 = ALK2 (Homo sapiens, UniProt Q04771); settings: DMH1
[1] = system: AMPK, ALK5, KDR (VEGFR-2) and PDGFR
ALK1 = ALK1 (Homo sapiens, UniProt P37023)
ALK6 = ALK6 (Homo sapiens, UniProt O00238)
[2] = system: TGF-β type II receptor and activin type II receptor
BMP type II receptor = biological target: T1, BMP type II receptor (Homo sapiens, UniProt Q13873)
T1 sequence (Q13873 27-1038): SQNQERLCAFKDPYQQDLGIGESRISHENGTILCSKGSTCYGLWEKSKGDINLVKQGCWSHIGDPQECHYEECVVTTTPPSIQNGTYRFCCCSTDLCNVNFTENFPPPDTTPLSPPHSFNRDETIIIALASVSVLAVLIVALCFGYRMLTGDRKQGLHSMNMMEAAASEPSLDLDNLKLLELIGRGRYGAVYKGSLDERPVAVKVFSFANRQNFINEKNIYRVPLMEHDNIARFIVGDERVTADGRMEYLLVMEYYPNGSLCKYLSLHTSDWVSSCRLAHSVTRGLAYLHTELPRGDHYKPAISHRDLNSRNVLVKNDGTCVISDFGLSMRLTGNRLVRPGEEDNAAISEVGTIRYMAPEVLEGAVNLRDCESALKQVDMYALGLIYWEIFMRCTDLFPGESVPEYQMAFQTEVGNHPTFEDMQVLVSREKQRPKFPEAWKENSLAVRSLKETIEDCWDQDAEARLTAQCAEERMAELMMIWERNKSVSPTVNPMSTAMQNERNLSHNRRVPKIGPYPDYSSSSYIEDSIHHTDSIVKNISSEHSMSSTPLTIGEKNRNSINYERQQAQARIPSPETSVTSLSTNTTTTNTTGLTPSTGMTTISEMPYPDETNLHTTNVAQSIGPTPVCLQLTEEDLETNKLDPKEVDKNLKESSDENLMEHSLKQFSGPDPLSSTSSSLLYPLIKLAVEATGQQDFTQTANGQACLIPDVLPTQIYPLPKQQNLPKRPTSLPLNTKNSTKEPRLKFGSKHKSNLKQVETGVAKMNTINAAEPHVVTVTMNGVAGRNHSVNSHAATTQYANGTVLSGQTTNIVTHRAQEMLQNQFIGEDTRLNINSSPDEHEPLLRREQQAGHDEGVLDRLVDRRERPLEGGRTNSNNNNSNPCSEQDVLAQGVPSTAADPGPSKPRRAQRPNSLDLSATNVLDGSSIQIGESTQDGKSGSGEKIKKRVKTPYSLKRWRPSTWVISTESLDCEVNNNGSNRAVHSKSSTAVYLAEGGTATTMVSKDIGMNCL

GSK-3β = GSK-3β (Homo sapiens, UniProt P49841); settings: vs CDC2, ERK2 and other kinases
Chain of GSK-3β (P49841 whole entry): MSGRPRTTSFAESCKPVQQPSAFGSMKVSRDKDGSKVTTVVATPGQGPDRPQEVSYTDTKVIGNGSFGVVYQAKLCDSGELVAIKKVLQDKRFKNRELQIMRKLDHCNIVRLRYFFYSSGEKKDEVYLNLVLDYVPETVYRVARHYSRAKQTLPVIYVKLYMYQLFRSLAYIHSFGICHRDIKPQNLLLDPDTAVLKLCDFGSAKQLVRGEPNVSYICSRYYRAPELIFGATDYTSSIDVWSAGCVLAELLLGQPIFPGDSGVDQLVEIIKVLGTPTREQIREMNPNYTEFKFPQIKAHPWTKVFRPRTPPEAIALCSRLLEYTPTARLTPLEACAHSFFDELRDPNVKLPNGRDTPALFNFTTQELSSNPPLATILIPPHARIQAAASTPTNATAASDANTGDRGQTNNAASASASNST

ALK7 = biological target: T2, ALK7 (Homo sapiens, UniProt Q8NER5); settings: qualitative
T2 sequence (Q8NER5 21-493): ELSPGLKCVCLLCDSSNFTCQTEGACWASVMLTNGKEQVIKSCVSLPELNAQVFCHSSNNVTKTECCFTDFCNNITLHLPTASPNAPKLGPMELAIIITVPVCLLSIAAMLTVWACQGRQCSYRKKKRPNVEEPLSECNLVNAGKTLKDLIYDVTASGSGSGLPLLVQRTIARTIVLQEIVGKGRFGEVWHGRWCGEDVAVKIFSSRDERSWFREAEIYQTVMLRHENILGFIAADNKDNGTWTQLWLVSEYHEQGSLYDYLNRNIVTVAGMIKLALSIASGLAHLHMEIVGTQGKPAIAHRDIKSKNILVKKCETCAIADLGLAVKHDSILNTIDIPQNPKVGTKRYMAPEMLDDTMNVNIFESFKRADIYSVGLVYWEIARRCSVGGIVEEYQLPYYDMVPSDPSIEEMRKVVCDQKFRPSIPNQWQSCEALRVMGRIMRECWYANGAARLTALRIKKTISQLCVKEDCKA

ALK4 = biological target: T3, ALK4 (Homo sapiens, UniProt P36896); settings: ALK4 vs ALK5
T3 sequence (P36896 24-505): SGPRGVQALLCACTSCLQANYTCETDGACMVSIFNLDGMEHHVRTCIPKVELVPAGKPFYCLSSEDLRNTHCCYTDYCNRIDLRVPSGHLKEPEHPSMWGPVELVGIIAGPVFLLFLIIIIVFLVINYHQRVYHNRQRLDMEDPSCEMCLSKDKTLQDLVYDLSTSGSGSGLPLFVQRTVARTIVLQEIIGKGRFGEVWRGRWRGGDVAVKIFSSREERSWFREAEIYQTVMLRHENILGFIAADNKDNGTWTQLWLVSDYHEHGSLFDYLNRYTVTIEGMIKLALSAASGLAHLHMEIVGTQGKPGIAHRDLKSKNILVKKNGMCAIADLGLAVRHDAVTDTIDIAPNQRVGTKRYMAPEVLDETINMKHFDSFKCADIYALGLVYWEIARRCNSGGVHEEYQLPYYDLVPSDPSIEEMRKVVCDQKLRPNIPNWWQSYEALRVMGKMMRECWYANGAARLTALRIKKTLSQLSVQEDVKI

ALK5 = ALK5 (Homo sapiens, UniProt P36897); settings: vs TGF-βRII
Chain of ALK5 (P36897 34-503, species assumed): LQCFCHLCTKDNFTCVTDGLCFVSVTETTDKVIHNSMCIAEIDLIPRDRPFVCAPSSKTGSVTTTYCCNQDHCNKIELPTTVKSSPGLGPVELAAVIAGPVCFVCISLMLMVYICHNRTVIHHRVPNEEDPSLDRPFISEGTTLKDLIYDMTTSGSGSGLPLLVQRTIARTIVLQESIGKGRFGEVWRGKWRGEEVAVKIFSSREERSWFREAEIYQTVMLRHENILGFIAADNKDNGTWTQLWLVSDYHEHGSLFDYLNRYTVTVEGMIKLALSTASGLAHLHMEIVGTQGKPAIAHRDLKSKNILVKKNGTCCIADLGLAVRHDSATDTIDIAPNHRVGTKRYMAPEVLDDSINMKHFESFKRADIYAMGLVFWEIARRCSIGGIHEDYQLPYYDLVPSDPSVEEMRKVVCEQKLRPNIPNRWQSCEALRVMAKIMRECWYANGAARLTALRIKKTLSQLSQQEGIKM

BMP type I receptor ALK3 = settings: C2C12 cells; read-out: IC50, transcription activity of BMP type I receptor ALK3

Chain of ALK1 (P37023 22-503, species assumed): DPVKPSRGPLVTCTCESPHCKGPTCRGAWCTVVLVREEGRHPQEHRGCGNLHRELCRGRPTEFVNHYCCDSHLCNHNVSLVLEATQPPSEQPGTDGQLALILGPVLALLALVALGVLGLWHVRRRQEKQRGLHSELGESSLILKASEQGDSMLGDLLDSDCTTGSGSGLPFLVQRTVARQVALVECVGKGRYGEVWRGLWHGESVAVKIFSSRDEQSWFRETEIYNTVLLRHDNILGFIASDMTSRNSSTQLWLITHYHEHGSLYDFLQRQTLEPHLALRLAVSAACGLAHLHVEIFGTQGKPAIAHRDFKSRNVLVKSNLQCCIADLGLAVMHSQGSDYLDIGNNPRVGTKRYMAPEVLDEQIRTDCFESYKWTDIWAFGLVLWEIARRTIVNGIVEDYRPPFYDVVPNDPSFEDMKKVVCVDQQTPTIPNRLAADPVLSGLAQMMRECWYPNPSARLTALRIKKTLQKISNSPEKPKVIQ
Chain of ALK6 (O00238 14-502): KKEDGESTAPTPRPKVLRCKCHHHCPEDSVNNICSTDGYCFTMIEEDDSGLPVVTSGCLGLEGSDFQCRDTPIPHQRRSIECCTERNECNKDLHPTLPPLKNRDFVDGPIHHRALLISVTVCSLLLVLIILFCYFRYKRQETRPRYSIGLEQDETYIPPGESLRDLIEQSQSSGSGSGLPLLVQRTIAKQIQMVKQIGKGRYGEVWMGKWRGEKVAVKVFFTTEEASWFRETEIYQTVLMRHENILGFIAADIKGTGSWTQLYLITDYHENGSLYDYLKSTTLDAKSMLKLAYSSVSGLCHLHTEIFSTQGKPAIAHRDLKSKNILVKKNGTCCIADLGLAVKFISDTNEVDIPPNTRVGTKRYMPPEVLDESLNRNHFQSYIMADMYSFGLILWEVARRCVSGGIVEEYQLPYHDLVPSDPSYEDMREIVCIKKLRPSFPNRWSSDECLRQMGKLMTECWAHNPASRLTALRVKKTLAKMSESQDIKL
Chain of ALK2 (Q04771 21-509): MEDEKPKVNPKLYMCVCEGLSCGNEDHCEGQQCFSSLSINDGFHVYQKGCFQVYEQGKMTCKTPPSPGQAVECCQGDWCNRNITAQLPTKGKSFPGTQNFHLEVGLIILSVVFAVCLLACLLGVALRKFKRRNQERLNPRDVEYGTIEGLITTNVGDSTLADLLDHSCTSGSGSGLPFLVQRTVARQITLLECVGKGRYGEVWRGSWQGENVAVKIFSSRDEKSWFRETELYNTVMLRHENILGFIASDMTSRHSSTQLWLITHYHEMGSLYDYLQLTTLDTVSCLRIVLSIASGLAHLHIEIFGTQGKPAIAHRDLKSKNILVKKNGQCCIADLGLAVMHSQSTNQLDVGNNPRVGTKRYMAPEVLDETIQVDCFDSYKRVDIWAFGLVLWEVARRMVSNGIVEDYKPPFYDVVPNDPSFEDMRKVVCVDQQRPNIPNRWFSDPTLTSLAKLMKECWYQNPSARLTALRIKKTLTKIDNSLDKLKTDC

Molecule: CC(C)Oc1ccc(-c2cnc3c(-c4ccnc5ccccc45)cnn3c2)cc1 [DMH1]
- IC50 (ALK2): 108 nM
- inhibiting activity on AMPK, ALK5, KDR (VEGFR-2) and PDGFR [1]: no inhibiting activity

Molecule: COc1cc(-c2cc(-c3cccc(O)c3)cnc2N)cc(OC)c1OC [Medium K02288]
- IC50 (ALK1): 1.8 nM
- IC50 (ALK6): 6.4 nM
- inhibiting activity on other ALK5 (3, 4, 5) and ActRIIa (and ActRIIa): slight inhibiting activity

Molecule: O=C(NC1CCOCC1)c1ccc(-c2cc(-c3c[nH]nc3-c3ccccn3)ccn2)cc1 [GW788388]
- inhibition of TGF-β type II receptor and activin type II receptor [2]: also inhibiting
- inhibition of BMP type II receptor (BMP type II receptor): not BMP type II receptor

Molecule: Cc1cnc(-c2cnc(NCCNc3ccc(C#N)cn3)nc2-c2ccc(Cl)cc2Cl)[nH]1 [CHIR-99021]
- inhibition of GSK-3 stronger than inhibition on CDC2, ERK2 and other kinases (GSK-3β): 500 fold

Molecule: Cc1cccc(-c2[nH]c(C(C)(C)C)nc2-c2ccc3c(c2)OCO3)n1 [SB505124]
- inhibition of ALK7 (ALK7): also inhibiting ALK7
- inhibition of ALK1, 2, 3 or 6 (ALK1, 2, 3 or 6): not ALK1, 2, 3 or 6

Molecule: Cc1cccc(-c2[nH]c(C(C)(C)C)nc2-c2ccc3nccnc3c2)n1 [SB525334]
- effect on ALK4 lower than on ALK5 (ALK4): 4 fold
- activity to ALK2, 3 and 6 (ALK2, 3 and 6): no activity

Molecule: SD-208
- selectivity for TGF-βRI (ALK5) higher than on TGF-βRII (ALK5): more than 100 fold

Molecule: c1ccc2c(-c3cnn4cc(-c5ccc(N6CCNCC6)cc5)cnc34)ccnc2c1 [LDN-193189]
- selectivity on BMP higher than on TGF-β (BMP type I receptor ALK2; BMP vs TGF-β): 200 fold
- IC50 (BMP type I receptor ALK2; C2C12 cells, read-out: IC50, transcription activity of BMP type I receptor ALK2): 5 nM
- IC50 (BMP type I receptor ALK3): 30 nM
